Assay results reported in patent publication EP0361645B1, “Organic hydrazine derivatives for pharmaceutical use” (ROHM AND HAAS COMPANY, priority 1988, dated 1990).

Columns and labels:
[1] = system: intact L5D0 hornworms; experiment: Premature head capsule apolysis in intact L5D0 hornworms, fed treated diet; assay type: in vivo, M. sexta; conditions: for ED50: L5D0 larvae, oral, read-out: 50% effective dose
Method: Lepidoptera display the onset of a larval molt by slippage of the head capsule down over the mandibles during formation of an underlying pharate head capsule; this morphological marker accompanies epidermal apolysis which ordinarily occurs at or near peak molting hormone titers. Example No. 3 causes a rapid, premature apolysis in newly ecdysed fifth instar day 0 (L5DO) M. sexta larvae. Clear signs of head capsule apolysis are evident 24 hours after the initiation of feeding.
L4D1 means fourth instar, first day after molting. L4 animals 36 hours after ecdysis were ligated, decapitated and next day injected with varying doses of compound in 1 - 2 ul DMSO. They were scored as follows: 0 = normal L4 abdomens with no L5 crochets or spiracle apolysis; 1 = exposed dorsal vessel (response to moderate levels of molting hormone in the presence of low JH levels); 2 = L5 crochets formed but no spiracle apolysis; 3 = L5 crochets formed and mild spiracle apolysis; 4 = strong molting response, both L5 crochets and spiracle cuticle synthesized. These methods are an adaptation of the method of J. W. Truman, L. M. Riddiford, L. Safranek, 39 Dev. Biol 247 (1974). Injection and scoring of L5D3 abdomens (weighing 6.5 - 7.5 g) are also adaptations of previous methods in H. F. Nijhout, 22 J. Insect Physiol. 453 (1976). Mature feeding stage fifth instar animals weighing 8.5 - 9.5 g were ligated and decapitated, and immediately injected with Example No. 3 in 2 - 5 ul DMSO. Animals were held over moistened filter paper at 25 ° C and were scored after three days. Scoring was as follows: 0 = normal undeveloped blue-green L5D3 abdomen; 1 = light dorsal vessel exposure; 2 = dorsal vessel well-exposed with mild cuticular blanching, abdominal contraction; 3 = complete prepupal cuticle formation with strong abdominal contraction and strong cuticular blanching. For both L4 and L5 abdomens, 50% effective doses were determined by plotting the mean score for all individuals vs. dose, then determining the dose which gives a score of 2.0 and 1.5 respectively. Intact L5D0 hornworms were either allowed to feed on treated commercial black cutworm diet or injected into a proleg and scored after 48 hours. The 50% effective dose was calculated by plotting percentage of the population bearing a prematurely apolysed head capsule vs. dose. For all experiments in this table at least 5 different doses with 10 animals per dose were used.
The dosage differences between the two compounds was even more dramatic in bioassays on intact (unligated) L5D0 hornworms. If the compounds are injected, Example No. 3 was 67-fold as effective as 20-hydroxyecdysone, while if administered orally, it was over 670-fold as potent.
Hemolymph concentrations of 14C-Example No. 3 were measured by feeding L5D0 hornworm larvae artificial diet containing the labelled compound. At specified intervals thereafter measured volumes of hemolymph were collected, extracted and analyzed by thin layer chromatography and high performance liquid chromatography. […] Blood levels then declined rapidly, but remained at a residual level of about 3 uM for at least 36 hours thereafter.

[2] = system: Kr cells; experiment: Resistant Kr cell populations: response and ecdysteroid receptor activity; assay type: cell-based, Drosophila; conditions: for response of surviving cells (process elaboration, proliferation): four weeks in 1 X 10^-6 M 20 hydroxyecdysone or 1 X 10^-4 M Example No. 3; for ^3H-ponasterone A bound by resistant cell populations: populations reared in 1 X 10^-6 M 20-hydroxyecdysone or 1 X 10^-4 M Example No. 3, solvent controls 10.1
Method: Resistant Kr cell populations were reared by incubating cells at an initial density of 8 X 10^6 cells/ml with hormone or Example No. 3. The cells killed by treatment provide a feeder layer for the resistant populations. […] Ponasterone binding was assayed as described below and protein concentrations were determined using the Biorad method. This cross-resistance is compelling evidence that 20-hydroxyecdysone and Example No. 3 act through the ecdysone receptor.

## CC(C)(O)CC[C@@H](O)[C@](C)(O)[C@H]1CC[C@@]2(O)C3=CC(=O)[C@@H]4C[C@@H](O)[C@@H](O)C[C@]4(C)[C@H]3CC[C@]12C [20-hydroxyecdysone, reference compound]
[1]; Manduca sexta
  ED50: > 2000 mg/kg
[1]; feeding up to 2000 ppm, L5D0 hornworm larvae
  head capsule slippage: failed to elicit head capsule slippage
[2]
  response of surviving cells (process elaboration, proliferation): do not respond to either compound
  ^3H-ponasterone A bound by resistant cell populations: 1.5 femtomoles ^3H-ponasterone A per mg cytosolic protein

## CC(C)(C)N(NC(=O)c1ccccc1)C(=O)c1ccccc1 [Example No. 3, N'-t-butyl-N,N'-dibenzoylhydrazine]
[1]; Manduca sexta, po, L5D0 hornworm larvae, in artificial diet, read-out: 95% effective dose for premature molting
  ED95: ~10 mg/kg
[1]; Manduca sexta
  ED50: 3 mg/kg
[1]; intact L5D0 hornworms, administered orally
  fold as potent as 20-hydroxyecdysone: over 670 fold
[1]; newly ecdysed L5D0 larvae, after the initiation of feeding
  time to clear signs of head capsule apolysis: 24 h
[2]
  response of surviving cells (process elaboration, proliferation): do not respond to either compound
  ^3H-ponasterone A bound by resistant cell populations: 1.4 femtomoles ^3H-ponasterone A per mg cytosolic protein
